Data as given in patent US9168286B2, “Methods and compositions for use in treatment of patients with autoantibody positive disease” (Human Genome Sciences, Inc., priority 2005, dated 2015).

How the values were obtained:
subjects with RA [1] = experiment: Phase 2 clinical trial of belimumab in rheumatoid arthritis: biomarkers; type: in vivo, human
From the text: (§1) ACR20 response increased to approximately 40% at Week 48.

[2] = Phase 2 clinical trial of belimumab in rheumatoid arthritis: serum concentrations; conditions: human, in vivo
From the text: as §1

subjects with SLE [3] = conditions: human, in vivo
Description: (§2) 449 subjects with SLE by ACR criteria (Tan et al., Arthritis Rheum. 25:1271-7, (1982); and Hochberg et al., Arthritis Rheum. 40:1725, (1997)), with a history of measurable autoantibodies and SELENA SLEDAI score ≧4 at screening were dosed.
(§3) Subjects who completed the 52-week treatment period were given the option to continue the study for a 24-week extension period. […] B-cells were analyzed every 1-2 months by 4-color FACS (CD19, CD20, CD27, CD69, CD38, CD138 and CD45). Serum autoantibody, including anti-dsDNA Ab, Ig isotypes, total protein, and albumin levels were obtained at the same visits. The likelihood ratio chi-squared, Wilcoxon test or t-test was used to analyze the changes in the biological markers.

subjects with SLE [4] = experiment: Phase 2 clinical trial of belimumab in SLE: safety
Description: as §2, §3

subjects with RA [5] = experiment: Phase 2 clinical trial of belimumab in rheumatoid arthritis: safety; type: in vivo, human
From the text: as §1

subjects with SLE [6] = experiment: Phase 2 clinical trial of belimumab in SLE with 24-week extension and continuation trial: disease activity (SELENA SLEDAI, SLE Flare Index, PGA, BILAG, SF-36); type: in vivo, human
Description: Further, response rates among the treatment groups in the trial were also analyzed using a combined response endpoint (row 1), which combined a measure of global disease activity as measured by the SS score, with a measure of a patient's overall condition as assessed by the PGA disease activity index and a measure of disease in specific organ systems as measured by the BILAG scale.
Serum autoantibodies, Ig isotypes and complement (C3, C4) were measured at 1-3 month intervals. […]

[7] = continued treatment in the extension period
[8] = ANA+ subjects, week 52, 1.0 mg/kg, N = 78
[9] = ANA+ subjects, week 52, 4.0 mg/kg, N = 79
[10] = ANA+ subjects, week 52, 10.0 mg/kg, N = 78

## belimumab: an antibody that neutralizes Neutrokine-alpha protein
Subjects with RA [1]; [7]
  Effects on biomarkers: increased or were sustained
Subjects with RA [1]; human, in vivo
  CD20+ B-cells: statistically significant reductions
  RF (rheumatoid factor): statistically significant reductions
  activated B-cells: statistically significant reductions
  memory cells: increased within first month of treatment and slowly declined with continued treatment
  naïve B-cells: statistically significant reductions
[2]
  Serum concentrations: within the range expected based on the Phase 1 data
  effect of concomitant medications (methotrexate, leflunomide or hydroxychloroquine) on belimumab exposures: no significant effect
Subjects with SLE [3]
  safety, including adverse events (AE), AE severity, infections or lab toxicity: No clinically significant differences
Subjects with SLE [4]; 1 mg/kg
  Immunogenicity to belimumab, number of subjects: 1 subject
Subjects with SLE [4]; human, in vivo
  Infusion reactions: rare, with only 1 severe event reported
  tolerability: well tolerated
Subjects with SLE [4]; placebo 8%, p<0.05
  subjects with pleurisy: 3.3%
Subjects with RA [5]; 1, 4, 10 mg/kg, 24 weeks
  tolerability: well tolerated at all doses
Subjects with RA [5]; [7]
  tolerability: well tolerated
Subjects with SLE [6]; 1, 4, 10 mg/kg
  dose response in efficacy: no dose response in efficacy
Subjects with SLE [6]; ANA+ subjects vs ANA+ placebo, as early as week 4, also weeks 8, 16, 48 (p<0.05), 52 (p<0.01)
  mean percent change from baseline PGA: significant improvement
Subjects with SLE [6]; ANA+ subjects vs ANA+ placebo, weeks 12, 24, 48, 52, p<0.05
  mean SF-36 Physical Component Score (SF-36 PCS): significant improvements
Subjects with SLE [6]; ANA+ subjects, as early as week 8, p<0.05 over weeks 8-12 and 32-40
  frequency of increase in prednisone from ≦[…] to >[…]: significant reduction
Subjects with SLE [6]; ANA+ subjects, p=0.0058
  combined response endpoint (SS, PGA, BILAG): significant response
Subjects with SLE [6]; [8]
  % of subjects with no worsening by PGA (<0.3 point increase from baseline): (89.7%)
  % of subjects with reduction in SELENA SLEDAI ≧4: (52.6%)
  subjects with no worsening by PGA (<0.3 point increase from baseline), number: 70
  subjects with reduction in SELENA SLEDAI ≧4, number: 41
Subjects with SLE [6]; [9]
  % of subjects with no worsening by PGA (<0.3 point increase from baseline): (88.6%)
  % of subjects with reduction in SELENA SLEDAI ≧4: (48.1%)
  subjects with no worsening by PGA (<0.3 point increase from baseline), number: 70
  subjects with reduction in SELENA SLEDAI ≧4, number: 38
Subjects with SLE [6]; [10]
  % of subjects with no worsening by PGA (<0.3 point increase from baseline): (92.3%)
  % of subjects with reduction in SELENA SLEDAI ≧4: (47.4%)
  subjects with no worsening by PGA (<0.3 point increase from baseline), number: 72
  subjects with reduction in SELENA SLEDAI ≧4, number: 37
Subjects with SLE [6]; ANA+ subjects, week 52, All Active, N = 235, P 0.0027 vs placebo
  subjects with no worsening by PGA (<0.3 point increase from baseline), number: 212
Subjects with SLE [6]; ANA+ subjects, week 52, All Active, N = 235, P 0.0027 vs placebo (76.7%)
  % of subjects with no worsening by PGA (<0.3 point increase from baseline): (90.2%)
Subjects with SLE [6]; ANA+ subjects, week 52, All Active, N = 235, P 0.1169 vs placebo
  subjects with reduction in SELENA SLEDAI ≧4, number: 116
Subjects with SLE [6]; ANA+ subjects, week 52, p<0.008
  increases in BILAG organ domain score: musculoskeletal: fewer increases in score
Subjects with SLE [6]; ANA+ subjects, week 52, p<0.038
  increases in BILAG organ domain score: neurological: fewer increases in score
Subjects with SLE [6]; ANA+ subjects, week 52, p<0.15
  increases in BILAG organ domain score: general: trend toward fewer increases in score
  increases in BILAG organ domain score: renal: trend toward fewer increases in score
Subjects with SLE [6]; ANA+ subjects, week 52, p=0.0435
  reduction in SELENA SLEDAI (SS) score: 29%
Subjects with SLE [6]; ANA+ subjects, week 52, p=0.060
  increases in BILAG organ domain score: cardiovascular & respiratory: trend toward fewer increases in score
Subjects with SLE [6]; belimumab-treated, placebo ~15%
  subjects with increases of prednisone to >[…]: ~7%
Subjects with SLE [6]; by week 16 (p=0.016) through week 52 (p<0.002), all active vs. placebo
  PGA score: improved
Subjects with SLE [6]; lupus patients, IV days 0, 14, 28 then every four weeks until week 52
  dosage of prednisone necessary to ameliorate disease manifestations: effective in reducing the dosage of the corticosteroid prednisone
Subjects with SLE [6]; patients with ANA titer 1:80 or greater and/or ≧30 IU/mL anti-dsDNA, IV days 0, 14, 28 then every four weeks until week 52
  symptoms associated with lupus: significantly ameliorated symptoms associated with lupus
Subjects with SLE [6]; seropositive subjects (n=175) who completed 128 weeks
  combined response rate: 63%
Subjects with SLE [6]; seropositive subjects (n=321), all belimumab treatment groups combined, week 56, placebo 35%, p<0.05
  combined response rate: 49%
Subjects with SLE [6]; seropositive subjects, fifth six-month interval
  SLE flare rate (SFI), percent of subjects with at least one flare: 33%
Subjects with SLE [6]; seropositive subjects, first six-month interval, placebo 76%
  SLE flare rate (SFI), percent of subjects with at least one flare: 72%
Subjects with SLE [6]; seropositive subjects, fourth six-month interval
  SLE flare rate (SFI), percent of subjects with at least one flare: 30%
Subjects with SLE [6]; seropositive subjects, second six-month interval, placebo 73%
  SLE flare rate (SFI), percent of subjects with at least one flare: 61%
Subjects with SLE [6]; seropositive subjects, third six-month interval
  SLE flare rate (SFI), percent of subjects with at least one flare: 57%
Subjects with SLE [6]; seropositive subjects, weeks 76-128 of continuous therapy (ITT analysis)
  combined response rate: 55%
Subjects with SLE [6]; subjects with baseline Anti-dsDNA autoantibodies, week 52
  combined response rate: 47%
Subjects with SLE [6]; subjects with baseline Anti-dsDNA autoantibodies, week 128
  combined response rate: 53%
Subjects with SLE [6]; subjects with baseline RNP autoantibodies, week 52
  combined response rate: 42%
Subjects with SLE [6]; subjects with baseline RNP autoantibodies, week 128
  combined response rate: 52%
Subjects with SLE [6]; subjects with baseline Ro autoantibodies, week 52
  combined response rate: 41%
Subjects with SLE [6]; subjects with baseline Ro autoantibodies, week 128
  combined response rate: 51%
Subjects with SLE [6]; subjects with baseline aCl autoantibodies, week 52
  combined response rate: 51%
Subjects with SLE [6]; subjects with baseline aCl autoantibodies, week 128
  combined response rate: 51%
Subjects with SLE [6]; vs. placebo
  composite numerical BILAG scores: no significant differences
Subjects with SLE [6]; week 52, placebo 19%, p=0.0152
  percent of seropositive subjects with new 1A or 2B BILAG flares: 9%
Subjects with SLE [6]; week 52, placebo 23%, p=0.0027
  seropositive subjects with worsening PGA scores: 10%
